From patent US9617244B2, “Antibacterial quinoline derivatives” (JANSSEN PHARMACEUTICA NV, priority 2012, dated 2017)
Converted amounts (≈) assume the structure as drawn.

Assays:
[1] = tested on: Staphylococcus aureus (ATCC29213); experiment: In-vitro anti-bacterial activity, microtitre plate assay, IC90 determination (non-mycobacterial strains); format: cell-based; settings: 90% inhibitory concentration for bacterial growth, resazurin fluorescence; for IC90 STA B29213: 24 hours; for IC90: Staphylococcus aureus, ATCC29213, 24 h, read-out: IC90 STA B29213
In short: (§1)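 Inoculum of about 100 TCID50 (10–60 CFU/well) in Mueller-Hinton broth, serial five-fold compound dilutions, 24 h at 37 °C in air. Growth read by resazurin fluorescence (ex 530/em 590 nm); IC90 in μg/ml as 90% growth inhibition.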

[2] = tested on: Streptococcus pneumoniae (ATCC6305); experiment: as above; format: cell-based; settings: 90% inhibitory concentration for bacterial growth, resazurin fluorescence; for IC90: Streptococcus pneumoniae, ATCC6305, 24 h, read-out: IC90 SPN 6305; for IC90 SPN 6305: 24 hours
In short: as §1

[3] = tested on: Mycobacterium smegmatis (ATCC607); experiment: In-vitro anti-bacterial activity against strain M. Smegmatis ATCC607; format: cell-based; settings: 90% inhibitory concentration for bacterial growth, Alamar Blue fluorescence; for IC90 MSM 607: 48 hours; for IC90: Mycolicibacterium smegmatis, ATCC607, 48 h, read-out: IC90 MSM 607
In short: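 Serial five-fold compound dilutions in BSA-supplemented wells, inoculated with ~250 CFU/well in Mueller-Hinton broth, incubated 48 h at 37 °C, 5% CO2. Growth read by Alamar Blue fluorescence (ex 530/em 590 nm); IC90 in μg/ml.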

Compound | IC90 STA B29213 [1] [µg/mL] | IC90 [2] [µg/mL] | IC90 MSM 607 [3] [µg/mL] | IC90 SPN 6305 [2] [µg/mL] | melting point [°C] | IC90 [1] [µg/mL] | IC90 [3] [µg/mL]
COc1nc2ccc(Cl)cc2cc1C(c1ccc(Cl)cc1)C1(O)CCNC(Cc2ccccc2)C1 (stereo not shown) [Compound 94] | 3.13 (≈ 6.17 µM) | 4.95 (≈ 9.75 µM) | 1.76 (≈ 3.47 µM) |  |  |  | 
COc1nc2ccc(SC)cc2cc1C(c1ccc(Cl)cc1)C1(O)CCNC(Cc2ccccc2)C1 (stereo not shown) [Compound 91] | 1.64 (≈ 3.16 µM) |  | 1.64 (≈ 3.16 µM) | 4.63 (≈ 8.92 µM) | 214 |  | 
COc1nc2ccc(Br)cc2cc1C(c1cccc(Cl)c1)C1(O)CCNC(Cc2ccccc2)C1 (stereo not shown) [Compound 35] |  | 4.37 (≈ 7.92 µM) |  |  |  | 2.76 (≈ 5 µM) | 2.19 (≈ 3.97 µM)
COc1nc2ccc(Br)cc2cc1C(c1ccc(S(C)(=O)=O)cc1)C1(O)CCNC(Cc2ccccc2)C1 (stereo not shown) [Compound 102] | 3.76 (≈ 6.31 µM) | 7.5 (≈ 12.6 µM) | 3.76 (≈ 6.31 µM) |  | 145 |  | 
COc1nc2ccc(Br)cc2cc1C(c1ccc(Cl)cc1)C1(O)CCNCC1Cc1ccccc1 (stereo not shown) [Compound 41] | 3.48 (≈ 6.31 µM) |  | 3.48 (≈ 6.31 µM) | 6.95 (≈ 12.6 µM) |  |  | 
COc1nc2ccc(Br)cc2cc1C(c1ccc(Cl)cc1)C1(O)CCNC(Cc2ccc(F)c(F)c2)C1 (stereo not shown) [Compound 112] | 1.66 (≈ 2.82 µM) |  | 0.93 (≈ 1.58 µM) | 6.60 (≈ 11.2 µM) | 124 |  | 
CSc1nc2ccc(Br)cc2cc1C(c1ccc(Cl)cc1)C1(O)CCNC(Cc2ccccc2)C1 (stereo not shown) [Compound 87] | 3.58 (≈ 6.3 µM) | 7.15 (≈ 12.6 µM) | 2.85 (≈ 5.02 µM) |  | 227 |  | 
O=c1[nH]c2ccc(Br)cc2cc1C(c1ccc(Cl)cc1)C1(O)CCNC(Cc2ccc(F)c(F)c2)C1 (stereo not shown) [Compound 40] |  | 6.83 (≈ 11.9 µM) |  |  |  | 3.42 (≈ 5.96 µM) | 1.93 (≈ 3.36 µM)
COc1nc2ccc(SC)cc2cc1C(c1ccc(Cl)cc1)C1(O)CCNC(Cc2ccccc2)C1 (stereo not shown) [Compound 93] | 3.18 (≈ 6.13 µM) |  | 2.01 (≈ 3.87 µM) | 5.66 (≈ 10.9 µM) |  |  | 
COc1nc2ccc(Br)cc2cc1C(c1ccc(Cl)cc1)C1(O)CCNCC1Cc1ccccc1 (stereo not shown) [Compound 114] |  | 4.38 (≈ 7.94 µM) | 0.98 (≈ 1.78 µM) |  |  | 1.75 (≈ 3.17 µM) | 
O=c1[nH]c2ccc(Br)cc2cc1[C@@H](c1ccc(Cl)cc1)[C@]1(O)CCNC(Cc2ccccc2)C1 (stereo partly shown) [Compound 122] | 2.88 (≈ 5.35 µM) |  | 3.62 (≈ 6.73 µM) | 3.62 (≈ 6.73 µM) |  |  | 
O=c1[nH]c2ccc(Br)cc2cc1[C@@H](c1ccc(Cl)cc1)[C@]1(O)CCNC(Cc2ccccc2)C1 (stereo partly shown) [Compound 121] |  | 3.62 (≈ 6.73 µM) |  |  |  | 3.62 (≈ 6.73 µM) | 3.62 (≈ 6.73 µM)
COc1nc2ccc(Br)cc2cc1C(c1ccc(Cl)cc1)C1(O)CCNCC1Cc1ccccc1 (stereo not shown) [Compound 117] |  | 5.52 (≈ 10 µM) |  |  |  | 3.48 (≈ 6.31 µM) | 2.77 (≈ 5.02 µM)
CSc1nc2ccc(Br)cc2cc1C(c1ccc(Cl)cc1)C1(O)CCNC(Cc2ccccc2)C1 (stereo not shown) [Compound 88] | 2.63 (≈ 4.63 µM) |  | 1.66 (≈ 2.92 µM) | 8.32 (≈ 14.6 µM) |  |  | 
COc1nc2ccc(SC)cc2cc1C(c1ccc(Cl)cc1)C1(O)CCNC(Cc2ccccc2)C1 (stereo not shown) [Compound 90] |  | 8 (≈ 15.4 µM) |  |  |  | 3.18 (≈ 6.13 µM) | 3.18 (≈ 6.13 µM)
COc1nc2ccc(Br)cc2cc1C(c1ccc(C#N)cc1)C1(O)CCNC(Cc2ccccc2)C1 (stereo not shown) [Compound 115] |  | 4.16 (≈ 7.67 µM) |  |  |  | 3.3 (≈ 6.08 µM) | 2.08 (≈ 3.83 µM)
COc1nc2ccc(Br)cc2cc1C(c1ccc(Cl)cc1)C1(O)CCNC(Cc2ccc(F)c(F)c2)C1 (stereo not shown) [Compound 113] | 2.02 (≈ 3.44 µM) |  | 1.01 (≈ 1.72 µM) | 4.04 (≈ 6.87 µM) |  |  | 
COc1nc2ccc(Br)cc2cc1C(c1ccc(SC)cc1)C1(O)CCNC(Cc2ccccc2)C1 (stereo not shown) [Compound 98] | 1.78 (≈ 3.16 µM) | 6.32 (≈ 11.2 µM) | 1.12 (≈ 1.99 µM) |  |  |  | 

Compound | IC90 STA B29213 [1] [µg/mL] | IC90 [2] [µg/mL] | IC90 MSM 607 [3] [µg/mL] | IC90 SPN 6305 [2] [µg/mL] | melting point [°C] | IC90 [1] [µg/mL] | IC90 [3] [µg/mL]
COc1nc2ccc(Br)cc2cc1C(c1ccc(SC)cc1)C1(O)CCNC(Cc2ccccc2)C1 (stereo not shown) [Compound 101] | 3.56 (≈ 6.32 µM) |  | 1.59 (≈ 2.82 µM) | 6.32 (≈ 11.2 µM) |  |  | 
O=c1[nH]c2ccc(Br)cc2cc1C(c1cccc(Cl)c1)C1(O)CCNC(Cc2ccccc2)C1 (stereo not shown) [Compound 86] | 1.82 (≈ 3.38 µM) | 4.56 (≈ 8.48 µM) | 4.07 (≈ 7.57 µM) |  |  |  | 
COc1nc2ccc(Cl)cc2cc1C(c1ccc(S(C)(=O)=O)cc1)C1(O)CCNC(c2ccc(F)cc2C)C1 (stereo not shown) [Compound 367] | 7.16 (≈ 12.6 µM) |  | 5.69 (≈ 10 µM) |  | 175 |  | 
COc1nc2ccc(S(=O)(=O)C(C)C)cc2cc1C(c1ccc(Cl)cc1)C1(O)CCNC(Cc2ccccc2)C1 (stereo not shown) [Compound 387] | 14.55 (≈ 25.1 µM) |  | 7.29 (≈ 12.6 µM) |  | 204 |  | 
COc1nc2ccc(Br)cc2cc1C(c1ccccc1)C1(O)CCNC(c2ccc(F)cc2C)C1 (stereo not shown) [Compound 250] | 1.69 (≈ 3.16 µM) |  | 1.35 (≈ 2.52 µM) |  | 125 |  | 
COc1nc2ccc(S(C)(=O)=O)cc2cc1C(c1ccccc1)C1(O)CCNC(Cc2ccccc2)C1 (stereo not shown) [Compound 158] | >12.98 |  | >12.98 |  | 198 |  | 
COc1nc2ccc(Br)cc2cc1C(c1ccc(Cl)cc1)C1(O)CCNC(Cc2ccc(F)cc2)C1 (stereo not shown) [Compound 337] | 1.80 (≈ 3.16 µM) |  | 0.90 (≈ 1.58 µM) |  | 186 |  | 
COc1nc2ccc(Cl)cc2cc1C(c1ccc(Cl)cc1)C1(O)CCNC(CO)C1 (stereo not shown) [Compound 12] |  |  |  |  | 135 | 7.09 (≈ 15.8 µM) | 2.82 (≈ 6.3 µM)
COc1nc2ccc(Cl)cc2cc1C(c1ccc(Cl)cc1)C1(O)CCNCC1Cc1ccccn1 (stereo not shown) [Compound 433] | 6.40 (≈ 12.6 µM) |  |  |  | 114 |  | 4.04 (≈ 7.95 µM)
COc1nc2ccc(Cl)cc2cc1C(c1ccc(SC)cc1)C1(O)CCNC(c2ccc(F)cc2C)C1 (stereo not shown) [Compound 351] | 1.70 (≈ 3.17 µM) |  | 1.35 (≈ 2.51 µM) |  | 128 to 130 |  | 
COc1nc2ccc(S(C)(=O)=O)cc2cc1C(c1ccc(Cl)cc1)C1(O)CCNC(Cc2ccc(F)cc2)C1 (stereo not shown) [Compound 389] | 7.16 (≈ 12.6 µM) |  | 7.16 (≈ 12.6 µM) |  | 128 |  | 
CSc1ccc2[nH]c(=O)c(C(c3ccccc3)C3(O)CCNC(c4ccc(F)cc4C)C3)cc2c1 (stereo not shown) [Compound 181] | 6.15 (≈ 12.6 µM) |  | 9.75 (≈ 20 µM) |  | 173 |  | 
COc1nc2ccc(S(C)(=O)=O)cc2cc1C(c1ccc(Cl)cc1)C1(O)CCNCC1Cc1cccc[n+]1[O-] (stereo not shown) [Compound 65] |  |  |  |  | 240 | > 14.3 | > 14.3
CSc1ccc2[nH]c(=O)c(C(c3ccccc3)C3(O)CCNC(c4ccc(F)cc4C)C3)cc2c1 (stereo not shown) [Compound 180] | 3.08 (≈ 6.3 µM) |  | 3.08 (≈ 6.3 µM) |  | 186 |  | 
COc1nc2ccc(Cl)cc2cc1C(c1ccc(Cl)cc1)C1(O)CCNCC1C (stereo not shown) [Compound 423] | 5.43 (≈ 12.6 µM) |  | 3.43 (≈ 7.95 µM) |  | 174 |  | 
C=CCC1CNCCC1(O)C(c1ccc(Cl)cc1)c1cc2cc(Br)ccc2nc1OC (stereo not shown) [Compound 393] | 10.01 (≈ 19.9 µM) |  | 6.32 (≈ 12.6 µM) |  | 159 to 161 |  | 
COc1nc2ccc(Cl)cc2cc1C(c1ccc(Cl)cc1)C1(O)CCN(C(C)c2ccccc2)C(CO)C1 (stereo not shown) [Compound 9] |  |  |  |  | 182 | 4.92 (≈ 8.92 µM) | 3.48 (≈ 6.31 µM)
COc1nc2ccc(Cl)cc2cc1C(c1ccc(Cl)cc1)C1(O)CCNCC1F (stereo not shown) [Compound 454] | 10.94 (≈ 25.1 µM) |  | 4.35 (≈ 9.99 µM) |  | 186 |  | 
